US20060206946A1, “Method of disrupting heme transport in nematodes and of modelling and evaluating eukaryotic heme transport” (priority 2005, published 2006)

Key:
[1] = system: C. elegans; assay: Metabolic labeling with 59Fe or 59Fe-heme, heme isolation and TLC; format: in vivo, Caenorhabditis elegans; conditions: for radiolabel signal in heme extracted from labeled worms: 9.4×10^6 DPM, mCeHR
Method: (E) Metabolic labeling in C. elegans cultured in the presence of heme. Synchronized L1 larvae were grown in mCeHR medium containing either ^59Fe or ^59Fe-heme (9.4×10^6 DPM) and the worms harvested as gravid adults. Heme was extracted and concentrated, and then resolved by TLC followed by detection with a PhosphorImager (top panel). Lane 5, ^59Fe-heme control. Radiolabeled bands were quantified in a gamma counter and CPM normalized to total protein (bottom panel). To correct for non-specific binding of the radiolabeled Fe and heme, parallel experiments were conducted in the presence of 1 mM sodium azide (samples 1 and 3).
Preparation of hemin, hemin analogs and [^59Fe]Heme. Fresh stock solutions of hemin or hemin analogs (Frontier Sciences, Logan, Utah) were prepared immediately prior to use by dissolving required amounts in 0.3 M ammonium hydroxide. The pH of the stock solution was adjusted to pH 8.0 with 6 N HCl, and filter sterilized ([…]). The upper limit of free iron was estimated to be 3.8 nM/1 μM of hemin chloride by inductively coupled plasma-mass spectrometry (ICP-MS) analysis. For synthesis of ^59Fe-heme, 50 ml of glacial acetic acid was stirred under a constant flow of N2 at 60° C. followed by addition of 12 mg of protoporphyrin IX in pyridine for 30 min. To this mixture, 0.85 μCi of FeCl3 (specific activity 35.77 mCi/mg, Perkin Elmer, Boston, Mass.) was stirred in for an additional 3 h. Heme was extracted from this mixture with ethyl acetate followed by extensive washes with 4 N HCl and distilled water to remove unincorporated protoporphyrin IX and iron. The heme thus obtained was concentrated by evaporation of the ethyl acetate using a RotaVapor and frozen at −20° C. until further use. Total amount of ^59Fe-heme synthesized by this method was measured using a Packard Gamma Counter (˜21% efficiency). The purity of heme was determined by thin layer chromatography using silica gel 60 matrix in an NH4OH-saturated chamber with 2,6-lutidine/water solvent. We estimated the specific activity of ^59Fe-heme synthesized to be ˜2.8×10^6 DPM/nmol.
Metabolic Labeling, Heme Isolation and Thin Layer Chromatography. Equal numbers of L1 worms were grown at 20° C. in mCeHR medium with 20 μM hemin and supplemented with 9.4×10^6 DPM of either ^59Fe-heme or ^59FeCl3. Radiolabeled adult worms were harvested by first incubating them in M9 buffer for 30 min to empty the gut contents. […] It was experimentally determined that this concentration of NaN3 was not lethal to worms. […] Plates were exposed to a PhosphorImager and the radiolabel signal corresponding to heme was excised and analyzed using a gamma counter. Counts (DPM) obtained were normalized for protein as determined by the bicinchoninic acid method (Sigma) performed on pre-aliquoted samples of intact worms. […]

[2] = system: C. elegans wild-type N2 strain; assay: Worm culture and growth assay in axenic CeHR/mCeHR liquid medium; format: in vivo; conditions: for support of worm growth as heme source: in vivo
Method: (D) Biphasic response of C. elegans cultured in the presence of increasing amounts of hemin chloride (μM). Equal numbers of synchronized L1 larvae were grown in 24-well plates in mCeHR medium for 9 days and quantified (worms/μl) by microscopy. Each data point represents the mean±SD from three separate experiments performed in triplicate.
(A) Aerobic growth of C. elegans in mCeFIR medium with 20 μM hemin supplemented with either gallium protoporphyrin IX (GaPP) or gallium salts. Synchronized L1 larvae were grown for 9 days in 24-well plates and quantified (worms/μl) by microscopy. Each data point represents the mean from a single experiment, and each experiment was performed in triplicate. Inset depicts the GaPP analysis at lower concentrations for clarity.
(B) Effect of heme on the cytotoxicity of GaPP. Synchronized L1 larvae were inoculated in 24-well plates containing mCeHR medium with either 0, 2, 4, or 6 μM GaPP and increasing hemin (μM). The number of worms per μl was measured on day 9 and the data are presented as mean±SD.
FIG. 9 depicts worm utilization of heme-iron under iron deprivation. Equal numbers of synchronized L1 larvae were grown in the presence of 4, 20, and 100 μM hemin, either in basal mCeHR medium (set 1), or basal medium lacking exogenous iron (set 2), or as set 2 with 1 μM of the iron chelator ferrozine (set 3), or as set 3 with 486 μM ferrous ammonium sulfate (set 4). These values of ferrozine and iron were empirically determined by performing dose-response experiments and analyzing worm growth. The number of worms per μl was measured on day 9 and the data presented as mean±SD performed in triplicate. P<0.001 between sets 1 and 3.
To qualitatively and quantitatively determine the heme requirement of C. elegans, we assessed growth at various heme concentrations. Equal numbers of L1 larvae were inoculated in CeHR medium with either no cytochrome c and hemin, or with cytochrome c and increasing amounts of hemin (FIG. 4A). The effect of hemin became apparent within 48 hours and by 9 days, the heme-deplete worms were severely growth retarded at the L1/L2 stages. […] However, this stimulatory effect of heme was toxic to worms grown at heme concentrations >750 μM. To quantitatively assess the effect of heme on worms, we counted the number of live worms grown under different concentration of heme using DIC microscopy. […] On the basis of this association between heme and the growth and reproduction of C. elegans, we conclude that the biphasic nature of heme is likely due to the need for heme under heme-deprived conditions to perform essential metabolic functions, and the lethality of heme at high concentrations can be attributed to its cytotoxic activity.
Worm Culture and Growth Assays. Free-living worms were cultured in CeHR axenic liquid medium (Dr. Eric Clegg, Personal Communication). […] CeHR medium was modified (henceforth called mCeHR) to eliminate all sources of exogenously added heme; basal growth medium comprised 20 μM hemin chloride (Frontier Scientific, Logan, Utah) and 150 μM of ferrous ammonium sulfate (Sigma Chemicals). Worm strains were grown in mCeHR medium under aerobic conditions in tissue culture flasks at 20° C. ˜3.7×10^6 worms were routinely obtained after 3.5 to 4 days in a T75 flask with 30 ml basal medium from an initial inoculum of −1.5×10^5 worms. For initial culturing of worms in axenic media, three generations of worms were sequentially bleached (1.1% bleach/0.55 M NaOH) to eliminate any contaminating bacterial carryover from agar plates. In all dose-response experiments, worms were growth synchronized by treating the gravid hermaphrodite worms with bleach to dissolve adult worms. The eggs, resistant to bleach, were liberated from the carcasses and extensively washed with M9 buffer followed by overnight hatching in M9 buffer to synchronize growth. By harvesting at appropriate time intervals, synchronous larval stages and adult staged worms were collected for experimental manipulations. […]

[3] = system: C. elegans; format: in vivo, Caenorhabditis elegans; conditions: in vivo
Method: (C) Fluorescent metabolic labeling of worms with either 40 μM hemin (images 1, 4) or 40 μM ZnMP/4 μM hemin (images 2, 3, 5, 6) for 3 h followed by confocal microscopy with a 546 laser (images 1-3) and DIC optics (images 4-6). Arrowheads indicate ZnMP fluorescence accumulation within intestinal cells and developing embryos. For clarity, the boxed image in 2 is magnified in images 3 and 6. (Bar=100 μm).
(D) Worms were incubated with 40 μM ZnMP/4 μM hemin for 16 h followed by a chase with 40 μM hemin. Worms were analyzed by epifluorescence microscopy (TRITC channel) and DIC optics. Experiments were performed either in the absence (images 1-4) or presence (images 5-8) of NaN3 during the chase periods to test for the non-specific loss of ZnMP fluorescence. Photomicrograph 4 is shown at a lower power to depict the complete loss of ZnMP fluorescence. (Bar=100 μm). For (C) and (D), four separate experiments were performed with a minimum of 50 worms per data point per experiment. The data are representative for >90% of worms analyzed.
Because of the nature of the growth curve, we reasoned that heme homeostatis in C. elegans may be regulated in accordance with organismic needs and metabolic demands. […]
Pulse-Chase Analysis. […] At timed intervals, aliquots of worms were removed into the appropriate medium containing 10 mM NaN3 mounted on a slide and immediately analyzed with a 543 He/Ne laser on a Zeiss 410 confocal microscope, or with a Peltier-cooled Retiga 1300 12-bit CCD camera fitted on to a Leica DMIRE2 autofluorescence/DIC microscope. Images were further analyzed with SIMPLEPCI v5.2 Software (Compix, Inc.). […] No loss of fluorescence was observed when labeling experiments were performed in parallel in the presence of 1 mM NaN3 during the chase period and when worms were incubated in medium without hemin. To account for background autouluorescence in C. elegans, the sensor gain of the CCD camera or the laser was set to subtract any fluorescence obtained from control worms incubated in the presence of 40 μM hemin.

C=CC1=C(C)c2cc3[n-]c(cc4nc(cc5[n-]c(cc1n2)c(C)c5C=C)C(C)=C4CCC(=O)O)c(CCC(=O)O)c3C.[59Fe+2] [^59Fe-heme]
radiolabel signal in heme extracted from labeled worms [1]: specific signal
59Fe-heme uptake in metabolically inhibited worms ([1]; in the presence of NaN3): negligible

[Cl][59Fe]([Cl])[Cl] [^59Fe]
radiolabel signal in heme extracted from labeled worms [1]: no radiolabeled signal

O=S(=O)([O-])c1ccc(-c2nnc(-c3ccccn3)nc2-c2ccc(S(=O)(=O)[O-])cc2)cc1.[Na+].[Na+] [ferrozine]
effect on diminution in worm growth under iron deprivation ([2]; 1 μM ferrozine, medium lacking exogenous iron): further accentuated

CCC1=C(C)c2cc3[n-]c(cc4[n-]c(cc5nc(cc1n2)C(C)=C5CC)c(C)c4CCC(=O)O)c(CCC(=O)O)c3C.[Zn+2] [ZnMP, zinc mesoporphyrin IX]
time to discernable fluorescence signal in embryos [3]: ≤ 130 min

Cytochrome c: hemoprotein used as heme source for worm growth
support of worm growth as heme source [2]: sustained worm growth

hemoglobin: hemoprotein used as heme source for worm growth
support of worm growth as heme source [2]: sustained worm growth

[N-]=[N+]=[N-] [NaN3, sodium azide]
lethality to worms ([1]; 1 mM NaN3): not lethal
